For the assay, the target named is T1, PaEP4L (Plecoglossus altivelis, UniProt A0A142DUN0).
T1 construct: gene EP4; MG1 insect cell membranes
The experiment in a line: [3H]-PGE2 saturation binding to MG1 insect cell membranes, Scatchard.

One may read the Kd as the concentration at which binding is half-saturated. Low values mean higher affinity, high ones lower affinity.

T1 sequence (A0A142DUN0 1-459): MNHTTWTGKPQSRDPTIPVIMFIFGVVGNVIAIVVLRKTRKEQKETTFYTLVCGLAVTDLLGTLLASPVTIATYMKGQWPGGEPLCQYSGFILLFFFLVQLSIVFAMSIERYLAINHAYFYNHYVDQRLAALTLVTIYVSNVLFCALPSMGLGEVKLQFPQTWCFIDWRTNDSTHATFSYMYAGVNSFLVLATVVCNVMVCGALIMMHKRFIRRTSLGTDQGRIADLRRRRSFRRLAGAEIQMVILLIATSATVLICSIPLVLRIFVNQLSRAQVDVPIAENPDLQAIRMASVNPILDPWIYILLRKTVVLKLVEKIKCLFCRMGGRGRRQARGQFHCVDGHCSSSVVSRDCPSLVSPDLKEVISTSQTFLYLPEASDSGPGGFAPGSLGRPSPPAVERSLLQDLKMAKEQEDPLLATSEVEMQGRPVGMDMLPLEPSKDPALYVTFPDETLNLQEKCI

In turn, `CCCCC[C@H](O)/C=C/[C@H]1[C@H](O)CC(=O)[C@@H]1C/C=C\CCCC(=O)O` [PGE2] returned a Kd of 120 nM.

Source of the values: paper PMC4726814, “Molecular Characterization of E-Type Prostanoid Receptor 4 (EP4) from Ayu (Plecoglossus altivelis) and Its Functional Analysis in the Monocytes/Macrophages” (PLoS ONE, 2016).
